# Experimental data as given in ChEMBL document CHEMBL3885881, “DrugMatrix”.
# Species on record: Rattus norvegicus
# Experiment: DrugMatrix - Regimen: Daily Repeat
# Type: toxicity, organism-based, Sprague-Dawley
# Design: regimen Daily Repeat, gender Male, age 6-8 weeks
# Conditions: in vivo, po, route oral GAVAGE, vehicle 100 % WATER; for BASOPHIL / EOSINOPHIL / ERYTHROCYTE COUNT / HEMATOCRIT / HEMOGLOBIN / LEUKOCYTE COUNT / LYMPHOCYTE / MEAN CORPUSCULAR HEMOGLOBIN / MEAN CORPUSCULAR HEMOGLOBIN CONCENTRATION / MEAN CORPUSCULAR VOLUME / MONOCYTE / NEUTROPHIL / PLATELET COUNT: tissue Blood; for ALANINE AMINOTRANSFERASE / ALBUMIN / ALKALINE PHOSPHATASE / ASPARTATE AMINOTRANSFERASE / BLOOD UREA NITROGEN / CARBON DIOXIDE / CHLORIDE / CHOLESTEROL / CREATINE PHOSPHOKINASE / CREATININE / GLUCOSE / LACTATE DEHYDROGENASE / LIPASE / PHOSPHORUS / POTASSIUM / SODIUM / TOTAL BILIRUBIN / TOTAL PROTEIN / URIC ACID: tissue Plasma
# [1] = 0 mg/kg, 96 h, dose level Control, time 4 day
# [2] = 0 mg/kg, […], dose level Control, time 6 day
# [3] = 0 mg/kg, […], dose level Control, time 14 day
# [4] = 210 mg/kg, 96 h, dose level High, time 4 day
# [5] = 210 mg/kg, […], dose level High, time 6 day
# [6] = 210 mg/kg, […], dose level High, time 14 day
compound,measurement,setting,value
OCC1CO1 (configuration not stated) [GLYCIDOL],BASOPHIL,[1],0.47%
same,EOSINOPHIL,[1],0.58%
same,ERYTHROCYTE COUNT,[1],6.84 x10E6/uL
same,HEMATOCRIT,[1],44.27%
same,HEMOGLOBIN,[1],14.08 G/DL
same,LEUKOCYTE COUNT,[1],13.39 x10E3/uL
same,LYMPHOCYTE,[1],83.57%
same,MEAN CORPUSCULAR HEMOGLOBIN,[1],20.57 pg
same,MEAN CORPUSCULAR HEMOGLOBIN CONCENTRATION,[1],31.77 G/DL
same,MEAN CORPUSCULAR VOLUME,[1],64.68 fL
same,MONOCYTE,[1],1.92%
same,NEUTROPHIL,[1],12.95%
same,PLATELET COUNT,[1],1533.67 x10E3/uL
same,ALANINE AMINOTRANSFERASE,[1],28.17 u/L
same,ALBUMIN,[1],3.82 G/DL
same,ALKALINE PHOSPHATASE,[1],354.33 u/L
same,ASPARTATE AMINOTRANSFERASE,[1],73.83 u/L
same,BLOOD UREA NITROGEN,[1],16 mg/dL
same,CARBON DIOXIDE,[1],27.17 mmol/L
same,CHLORIDE,[1],104.83 MEQ/L
same,CHOLESTEROL,[1],83.33 mg/dL
same,CREATINE PHOSPHOKINASE,[1],288 u/L
same,CREATININE,[1],0.33 mg/dL
same,GLUCOSE,[1],181.33 mg/dL
same,LACTATE DEHYDROGENASE,[1],173.17 u/L
same,LIPASE,[1],17.67 u/L
same,PHOSPHORUS,[1],11.5 mg/dL
same,POTASSIUM,[1],6.8 MEQ/L
same,SODIUM,[1],147 MEQ/L
same,TOTAL BILIRUBIN,[1],0.35 mg/dL
same,TOTAL PROTEIN,[1],6.35 G/DL
same,URIC ACID,[1],1.55 mg/dL
same,BASOPHIL,[2],0.33%
same,EOSINOPHIL,[2],0.85%
same,ERYTHROCYTE COUNT,[2],6.98 x10E6/uL
same,HEMATOCRIT,[2],38.58%
same,HEMOGLOBIN,[2],14.25 G/DL
same,LEUKOCYTE COUNT,[2],11.01 x10E3/uL
same,LYMPHOCYTE,[2],85.07%
same,MEAN CORPUSCULAR HEMOGLOBIN,[2],20.47 pg
same,MEAN CORPUSCULAR HEMOGLOBIN CONCENTRATION,[2],31.45 G/DL
same,MEAN CORPUSCULAR VOLUME,[2],64.9 fL
same,MONOCYTE,[2],1.9%
same,NEUTROPHIL,[2],11.42%
same,PLATELET COUNT,[2],1289.67 x10E3/uL
same,BASOPHIL,[3],0.52%
same,EOSINOPHIL,[3],0.55%
same,ERYTHROCYTE COUNT,[3],7.72 x10E6/uL
same,HEMATOCRIT,[3],51.87%
same,HEMOGLOBIN,[3],15.32 G/DL
same,LEUKOCYTE COUNT,[3],16.2 x10E3/uL
same,LYMPHOCYTE,[3],85.13%
same,MEAN CORPUSCULAR HEMOGLOBIN,[3],19.85 pg
same,MEAN CORPUSCULAR HEMOGLOBIN CONCENTRATION,[3],29.52 G/DL
same,MEAN CORPUSCULAR VOLUME,[3],67.17 fL
same,MONOCYTE,[3],1.7%
same,NEUTROPHIL,[3],11.6%
same,PLATELET COUNT,[3],1104.17 x10E3/uL
same,ALANINE AMINOTRANSFERASE,[2],28.17 u/L
same,ALBUMIN,[2],3.78 G/DL
same,ALKALINE PHOSPHATASE,[2],385.33 u/L
same,ASPARTATE AMINOTRANSFERASE,[2],78 u/L
same,BLOOD UREA NITROGEN,[2],16.83 mg/dL
same,CARBON DIOXIDE,[2],26.67 mmol/L
same,CHLORIDE,[2],106.83 MEQ/L
same,CHOLESTEROL,[2],82.67 mg/dL
same,CREATINE PHOSPHOKINASE,[2],225.5 u/L
same,CREATININE,[2],0.27 mg/dL
same,GLUCOSE,[2],179.5 mg/dL
same,LACTATE DEHYDROGENASE,[2],98.33 u/L
same,LIPASE,[2],14.67 u/L
same,PHOSPHORUS,[2],12.28 mg/dL
same,POTASSIUM,[2],7.03 MEQ/L
same,SODIUM,[2],150.33 MEQ/L
same,TOTAL BILIRUBIN,[2],0.38 mg/dL
same,TOTAL PROTEIN,[2],6.45 G/DL
same,URIC ACID,[2],1.6 mg/dL
same,ALANINE AMINOTRANSFERASE,[3],37 u/L
same,ALBUMIN,[3],4.13 G/DL
same,ALKALINE PHOSPHATASE,[3],342 u/L
same,ASPARTATE AMINOTRANSFERASE,[3],71 u/L
same,BLOOD UREA NITROGEN,[3],16.5 mg/dL
same,CARBON DIOXIDE,[3],28.17 mmol/L
same,CHLORIDE,[3],104 MEQ/L
same,CHOLESTEROL,[3],70.67 mg/dL
same,CREATINE PHOSPHOKINASE,[3],287.67 u/L
same,CREATININE,[3],0.38 mg/dL
same,GLUCOSE,[3],150.17 mg/dL
same,LACTATE DEHYDROGENASE,[3],81.33 u/L
same,LIPASE,[3],16 u/L
same,PHOSPHORUS,[3],11.32 mg/dL
same,POTASSIUM,[3],6.22 MEQ/L
same,SODIUM,[3],147.33 MEQ/L
same,TOTAL BILIRUBIN,[3],0.43 mg/dL
same,TOTAL PROTEIN,[3],6.55 G/DL
same,URIC ACID,[3],1.38 mg/dL
same,BASOPHIL,[4],0.37%
same,EOSINOPHIL,[4],0.43%
same,ERYTHROCYTE COUNT,[4],6.84 x10E6/uL
same,HEMATOCRIT,[4],44.53%
same,HEMOGLOBIN,[4],13.97 G/DL
same,LEUKOCYTE COUNT,[4],11.04 x10E3/uL
same,LYMPHOCYTE,[4],82.73%
same,MEAN CORPUSCULAR HEMOGLOBIN,[4],20.43 pg
same,MEAN CORPUSCULAR HEMOGLOBIN CONCENTRATION,[4],31.4 G/DL
same,MEAN CORPUSCULAR VOLUME,[4],65.2 fL
same,MONOCYTE,[4],2.77%
same,NEUTROPHIL,[4],12.93%
same,PLATELET COUNT,[4],1402.67 x10E3/uL
same,ALANINE AMINOTRANSFERASE,[4],41.67 u/L
same,ALBUMIN,[4],3.9 G/DL
same,ALKALINE PHOSPHATASE,[4],368 u/L
same,ASPARTATE AMINOTRANSFERASE,[4],81.33 u/L
same,BLOOD UREA NITROGEN,[4],15.33 mg/dL
same,CARBON DIOXIDE,[4],26 mmol/L
same,CHLORIDE,[4],105.33 MEQ/L
same,CHOLESTEROL,[4],107.33 mg/dL
same,CREATINE PHOSPHOKINASE,[4],232 u/L
same,CREATININE,[4],0.4 mg/dL
same,GLUCOSE,[4],184 mg/dL
same,LACTATE DEHYDROGENASE,[4],181 u/L
same,LIPASE,[4],21 u/L
same,PHOSPHORUS,[4],10.67 mg/dL
same,POTASSIUM,[4],6.63 MEQ/L
same,SODIUM,[4],147.33 MEQ/L
same,TOTAL BILIRUBIN,[4],0.37 mg/dL
same,TOTAL PROTEIN,[4],6.6 G/DL
same,URIC ACID,[4],1.53 mg/dL
same,BASOPHIL,[5],0.33%
same,EOSINOPHIL,[5],0.33%
same,ERYTHROCYTE COUNT,[5],6.72 x10E6/uL
same,HEMATOCRIT,[5],43.03%
same,HEMOGLOBIN,[5],13.67 G/DL
same,LEUKOCYTE COUNT,[5],11.41 x10E3/uL
same,LYMPHOCYTE,[5],88.93%
same,MEAN CORPUSCULAR HEMOGLOBIN,[5],20.37 pg
same,MEAN CORPUSCULAR HEMOGLOBIN CONCENTRATION,[5],31.77 G/DL
same,MEAN CORPUSCULAR VOLUME,[5],64.1 fL
same,MONOCYTE,[5],2.73%
same,NEUTROPHIL,[5],6.93%
same,PLATELET COUNT,[5],1416.33 x10E3/uL
same,BASOPHIL,[6],0.43%
same,EOSINOPHIL,[6],1.53%
same,ERYTHROCYTE COUNT,[6],6.88 x10E6/uL
same,HEMATOCRIT,[6],45.62%
same,HEMOGLOBIN,[6],13.7 G/DL
same,LEUKOCYTE COUNT,[6],12.42 x10E3/uL
same,LYMPHOCYTE,[6],88.5%
same,MEAN CORPUSCULAR HEMOGLOBIN,[6],19.93 pg
same,MEAN CORPUSCULAR HEMOGLOBIN CONCENTRATION,[6],30.02 G/DL
same,MEAN CORPUSCULAR VOLUME,[6],66.33 fL
same,MONOCYTE,[6],1.9%
same,NEUTROPHIL,[6],6.83%
same,PLATELET COUNT,[6],1312.75 x10E3/uL
same,ALANINE AMINOTRANSFERASE,[5],34 u/L
same,ALBUMIN,[5],3.93 G/DL
same,ALKALINE PHOSPHATASE,[5],398 u/L
same,ASPARTATE AMINOTRANSFERASE,[5],76.33 u/L
same,BLOOD UREA NITROGEN,[5],15.67 mg/dL
same,CARBON DIOXIDE,[5],24.33 mmol/L
same,CHLORIDE,[5],110 MEQ/L
same,CHOLESTEROL,[5],95.33 mg/dL
same,CREATINE PHOSPHOKINASE,[5],145 u/L
same,CREATININE,[5],0.3 mg/dL
same,GLUCOSE,[5],175.33 mg/dL
same,LACTATE DEHYDROGENASE,[5],95.33 u/L
same,LIPASE,[5],6 u/L
same,PHOSPHORUS,[5],11.3 mg/dL
same,POTASSIUM,[5],6.9 MEQ/L
same,SODIUM,[5],151.67 MEQ/L
same,TOTAL BILIRUBIN,[5],0.37 mg/dL
same,TOTAL PROTEIN,[5],6.67 G/DL
same,URIC ACID,[5],1.63 mg/dL
same,ALANINE AMINOTRANSFERASE,[6],34 u/L
same,ALBUMIN,[6],4.45 G/DL
same,ALKALINE PHOSPHATASE,[6],332.5 u/L
same,ASPARTATE AMINOTRANSFERASE,[6],55.5 u/L
same,BLOOD UREA NITROGEN,[6],17 mg/dL
same,CARBON DIOXIDE,[6],27 mmol/L
same,CHLORIDE,[6],105 MEQ/L
same,CHOLESTEROL,[6],100.75 mg/dL
same,CREATINE PHOSPHOKINASE,[6],116.5 u/L
same,CREATININE,[6],0.32 mg/dL
same,GLUCOSE,[6],136.5 mg/dL
same,LACTATE DEHYDROGENASE,[6],63.5 u/L
same,LIPASE,[6],9.75 u/L
same,PHOSPHORUS,[6],12.12 mg/dL
same,POTASSIUM,[6],6.47 MEQ/L
same,SODIUM,[6],148.25 MEQ/L
same,TOTAL BILIRUBIN,[6],0.35 mg/dL
same,TOTAL PROTEIN,[6],7.2 G/DL
same,URIC ACID,[6],1.62 mg/dL
